Biological target: USP1 (construct USP1 (I-785, GG670, 671AA)/UAF1 (I-677)-Flag) (Homo sapiens (Human), UniProt O94782, G670A/G671A)
Assay: Ubiquitin-Rhodamine 110 assay for USP1 activity
Type: biochemical
Details: USP1/UAF1 25 pM, Ub-Rh110 25 nM, 30 min preincubation
Protocol: Example 53: Ubitquin-Rhodamine 110 Assay for USP1 Activity
The HTS assay was performed in a final volume of 20 μL in assay buffer containing 20 mM Tris-HCl (pH 8.0, (1M Tris-HCl, pH 8.0 solution; Corning 46-031-CM)), 2 mM CaCl2 (1M Calcium Chloride solution; Sigma #21114) 1 mM GSH (L-Glutathione reduced; Sigma #G4251), 0.01% Prionex ([…] filtered, Sigma #G-0411), and 0.01% Triton X-100. Stock compound solutions were stored at −20° C. as 10 mM in DMSO. Up to 1 month prior to the assay, 2 mM test compounds were pre-dispensed into assay plates (Black, low volume; Corning #3820) and frozen at −20° C. Prestamped assay plates were allowed to come to room temperature on the day of the assay. For the screen, 100 nL of 2 mM was pre-dispensed for a final screening concentration of […] (DMSO(fc)=0.5%). The final concentration of the enzyme (USP1, construct USP1 (I-785, GG670, 671AA)/UAF1 (I-677)-Flag; Viva) in the assay was 100 pM. Final substrate (Ub-Rh110; Ubiquitin-Rhodamine 110, R&D Systems #U-555) concentration was 25 nM with [Ub-Rh110]<<Km. […] Plates were incubated stacked for 45 minutes at room temperature before fluorescence was read on the Envision (Excitation at 485 nm and Emission at 535 nm; Perkin Elmer) or on the PheraSTAR (Excitation at 485 nm and Emission at 535 nm; BMG Labtech)
Nanoliter quantities of either an 8-point or 10-point, 3-fold serial dilution in DMSO was pre-dispensed into assay plates (Perkin Elmer, ProxiPlate-384 F Plus, #6008269) for a final test concentration range of either 25 μM to 11 nM or 25 μM to 1.3 nM, respectively. The final concentration of the enzyme (USP1, construct USP1 (I-785, GG670, 671AA)/UAF1 (I-677)-Flag; Viva) in the assay was 25 pM. Final substrate (Ub-Rh110; Ubiquitin-Rhodamine 110, R&D Systems #U-555) concentration was 25 nM with [Ub-Rh110]<<Km. […] Plates were incubated stacked for 20 minutes at room temperature before 5 μL of stop solution (final concentration of 10 mM citric acid in assay buffer (Sigma, #251275-500G)). Fluorescence was read on the Envision (Excitation at 485 nm and Emission at 535 nm; Perkin Elmer) or on the PheraSTAR (Excitation at 485 nm and Emission at 535 nm; BMG Labtech).
For both assay formats data were reported as percent inhibition compared with control wells based on the following equation: % inh=[1−((FLU−AveLow)/(AveHigh−AveLow))]×100 where FLU=measured Fluorescence, AveLow=average Fluorescence of no enzyme control (n=16), and AveHigh=average Fluorescence of DMSO control (n=16). IC50 values were determined by curve fitting of the standard 4 parameter logistic fitting algorithm included in the Activity Base software package: IDBS XE Designer Model205. Data is fitted using the Levenburg Marquardt algorithm.

Sequence of USP1 (construct USP1 (I-785, GG670, 671AA)/UAF1 (I-677)-Flag) (O94782 whole entry G670A/G671A): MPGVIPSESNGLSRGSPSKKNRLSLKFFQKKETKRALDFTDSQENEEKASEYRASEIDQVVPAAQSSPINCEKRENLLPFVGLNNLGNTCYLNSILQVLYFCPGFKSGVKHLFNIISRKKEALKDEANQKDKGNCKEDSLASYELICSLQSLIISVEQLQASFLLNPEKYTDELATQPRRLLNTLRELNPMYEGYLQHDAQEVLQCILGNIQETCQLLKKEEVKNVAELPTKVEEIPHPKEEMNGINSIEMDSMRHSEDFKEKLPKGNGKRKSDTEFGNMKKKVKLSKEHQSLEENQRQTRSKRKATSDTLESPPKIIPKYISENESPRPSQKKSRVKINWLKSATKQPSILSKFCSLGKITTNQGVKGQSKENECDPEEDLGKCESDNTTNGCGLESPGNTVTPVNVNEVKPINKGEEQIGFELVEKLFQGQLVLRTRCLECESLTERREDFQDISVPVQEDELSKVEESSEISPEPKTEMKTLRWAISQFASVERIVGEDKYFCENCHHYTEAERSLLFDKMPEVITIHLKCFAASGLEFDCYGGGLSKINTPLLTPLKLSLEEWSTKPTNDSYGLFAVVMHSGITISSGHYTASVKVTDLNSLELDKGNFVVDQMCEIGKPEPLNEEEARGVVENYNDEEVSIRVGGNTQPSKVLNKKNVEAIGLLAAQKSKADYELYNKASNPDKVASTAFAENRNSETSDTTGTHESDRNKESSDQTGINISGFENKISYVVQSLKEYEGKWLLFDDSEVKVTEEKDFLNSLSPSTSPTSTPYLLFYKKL
Sequence of USP1 (construct USP1 (I-785, GG670, 671AA)/UAF1 (I-677)-Flag) (Q8TAF3 whole entry partner): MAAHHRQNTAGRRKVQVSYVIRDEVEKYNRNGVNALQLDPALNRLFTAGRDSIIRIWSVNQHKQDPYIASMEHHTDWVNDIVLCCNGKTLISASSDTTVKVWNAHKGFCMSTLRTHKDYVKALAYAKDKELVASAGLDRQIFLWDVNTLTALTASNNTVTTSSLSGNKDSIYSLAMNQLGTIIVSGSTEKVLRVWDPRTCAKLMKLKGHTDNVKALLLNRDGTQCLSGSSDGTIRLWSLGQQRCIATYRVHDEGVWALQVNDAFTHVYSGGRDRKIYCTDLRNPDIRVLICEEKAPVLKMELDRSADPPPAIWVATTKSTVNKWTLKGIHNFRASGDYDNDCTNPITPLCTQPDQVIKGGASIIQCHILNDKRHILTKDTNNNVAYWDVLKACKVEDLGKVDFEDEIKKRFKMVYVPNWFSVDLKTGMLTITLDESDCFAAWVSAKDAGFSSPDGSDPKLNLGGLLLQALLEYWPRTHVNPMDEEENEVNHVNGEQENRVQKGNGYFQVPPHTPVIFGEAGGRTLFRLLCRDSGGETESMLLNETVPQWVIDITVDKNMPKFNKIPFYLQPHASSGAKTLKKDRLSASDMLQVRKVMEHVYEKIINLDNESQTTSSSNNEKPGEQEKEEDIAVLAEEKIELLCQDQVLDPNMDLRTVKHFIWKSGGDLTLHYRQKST

Compound	IC50 [nM]
Cn1cc(C(F)(F)F)nc1-c1ccc(Cn2c(=O)[nH]c3cnc(-c4ccccc4C(F)F)nc32)cc1 [Compound I-31, 2-(2-(difluoromethyl)phenyl)-9-(4-(1-methyl-4-(trifluoromethyl)-1H-imidazol-2-yl)benzyl)-7,9-dihydro-8H-purin-8-one]	< 50
CC(C)c1ncccc1-c1ncc2[nH]c(=O)n(Cc3ccc(-c4nc(C(F)(F)F)cn4C4COC4)cc3)c2n1 [Compound I-32, 2-(2-isopropylpyridin-3-yl)-9-(4-(1-(oxetan-3-yl)-4-(trifluoromethyl)-1H-imidazol-2-yl)benzyl)-7,9-dihydro-8H-purin-8-one]	50 to 200
O=c1[nH]c2cnc(-c3cccnc3C3CC3)nc2n1Cc1ccc(-c2nc(C(F)(F)F)cn2C2COC2)cc1 [Compound I-33, 2-(2-cyclopropylpyridin-3-yl)-9-(4-(1-(oxetan-3-yl)-4-(trifluoromethyl)-1H-imidazol-2-yl)benzyl)-7,9-dihydro-8H-purin-8-one]	< 50
CN1CCc2cccc(-c3ncc4[nH]c(=O)n(Cc5ccc(-c6nc(C(F)(F)F)cn6C)cc5)c4n3)c21 [Compound I-34, 9-(4-(1-methyl-4-(trifluoromethyl)-1H-imidazol-2-yl)benzyl)-2-(1-methylindolin-7-yl)-7,9-dihydro-8H-purin-8-one]	< 50
Cn1cc(C(F)(F)F)nc1-c1ccc(Cn2c(=O)[nH]c3cnc(-c4cccnc4OC(F)F)nc32)cc1 [Compound I-35, 2-(2-(difluoromethoxy)pyridin-3-yl)-9-(4-(1-methyl-4-(trifluoromethyl)-1H-imidazol-2-yl)benzyl)-7,9-dihydro-8H-purin-8-one]	< 50
Cn1cc(C(F)(F)F)nc1-c1ccc(Cn2c(=O)[nH]c3cnc(-c4cccc5c4OC(F)(F)O5)nc32)cc1 [Compound I-36, 2-(2,2-difluorobenzo[d][1,3]dioxol-4-yl)-9-(4-(1-methyl-4-(trifluoromethyl)-1H-imidazol-2-yl)benzyl)-7,9-dihydro-8H-purin-8-one]	200 to 2000
Cn1cc(C(F)(F)F)nc1-c1ccc(Cn2c(=O)[nH]c3cnc(-c4ccccc4OC(F)(F)F)nc32)cc1 [Compound I-37, 9-(4-(1-methyl-4-(trifluoromethyl)-1H-imidazol-2-yl)benzyl)-2-(2-(trifluoromethoxy)phenyl)-7,9-dihydro-8H-purin-8-one]	< 50
CC(=O)c1ccccc1-c1ncc2[nH]c(=O)n(Cc3ccc(-c4nc(C(F)(F)F)cn4C)cc3)c2n1 [Compound I-38, 2-(2-acetylphenyl)-9-(4-(1-methyl-4-(trifluoromethyl)-1H-imidazol-2-yl)benzyl)-7,9-dihydro-8H-purin-8-one]	< 50
Cc1cc(C(F)(F)F)nn1-c1ccc(Cn2c(=O)[nH]c3cnc(-c4cccnc4C(C)C)nc32)cc1 [Compound I-40, 2-(2-isopropylpyridin-3-yl)-9-(4-(5-methyl-3-(trifluoromethyl)-1H-pyrazol-1-yl)benzyl)-7,9-dihydro-8H-purin-8-one]	< 50
Cc1cc(C(F)(F)F)n(-c2ccc(Cn3c(=O)[nH]c4cnc(-c5cccnc5OCC(F)(F)F)nc43)cc2)n1 [Compound I-41, 9-(4-(3-methyl-5-(trifluoromethyl)-1H-pyrazol-1-yl)benzyl)-2-(2-(2,2,2-trifluoroethoxy)pyridin-3-yl)-7,9-dihydro-8H-purin-8-one]	50 to 200
COCCn1cc(C(F)(F)F)nc1-c1ccc(Cn2c(=O)[nH]c3cnc(-c4cccnc4C(C)C)nc32)cc1 [Compound I-43, 2-(2-isopropylpyridin-3-yl)-9-(4-(1-(2-methoxyethyl)-4-(trifluoromethyl)-1H-imidazol-2-yl)benzyl)-7,9-dihydro-8H-purin-8-one]	50 to 200
Cn1cc(C(F)(F)F)nc1-c1ccc(Cn2c(=O)[nH]c3cnc(-c4cccc5cnn(C)c45)nc32)cc1 [Compound I-44, 2-(1-methyl-1H-indazol-7-yl)-9-(4-(1-methyl-4-(trifluoromethyl)-1H-imidazol-2-yl)benzyl)-7,9-dihydro-8H-purin-8-one]	< 50

From patent US10189841B2, “Purinones as ubiquitin-specific protease 1 inhibitors” (Forma Therapeutics, Inc., priority 2015, dated 2019)
